Literature values, collected in patent US8758737B2, “Evaporative cooling composition” (priority 2005, dated 2014).

Settings: stated as a property of the alcohol (evaporative cooling); temperature not given

| vapor pressure | SMILES |
| --- | --- |
| 310 mmHg | CC(C)O [isopropyl alcohol] |
| about 41.0 mmHg | CCO [ethyl alcohol] |
